The data set is described as follows: cn = amount concentration of the nth substance listed, in mol/dm3. To be noted: 101 kPa, Liquid; for viscosity: Concentric cylinders viscometry, c1 = 0.025; for mass density: Vibrating tube method.

The structures appear in SMILES notation. Numbers after ± are expanded uncertainties.

In the case of `NCC(=O)NCC(=O)O` [glycylglycine] + O, the viscosity runs as follows: (293.15 K) 1.019 ± 0.0071 mPa·s; (298.15 K) 0.9026 ± 0.0067 mPa·s; (303.15 K) 0.8068 ± 0.0064 mPa·s.
`[Cl-].[Na+]` [sodium chloride] + O: the mass density (298.15 K, c1 = 0.2091) turned out to be 1005.46 ± 0.056 kg/m3; the mass density (298.15 K, c1 = 0.5066) worked out at 1015.26 ± 0.065 kg/m3; the mass density (298.15 K, c1 = 1.013) is recorded as 1034.19 ± 0.085 kg/m3; the mass density (298.15 K, c1 = 1.503) worked out at 1049.73 ± 0.11 kg/m3; the mass density (298.15 K, c1 = 1.974) turned out to be 1074.45 ± 0.15 kg/m3; the mass density (298.15 K, c1 = 2.45) was determined as 1088.01 ± 0.19 kg/m3.

For orientation: viscosity means the internal friction of a fluid under shear. Usually mass density stands for the mass of a sample divided by its volume.

Values taken from the NIST ThermoML archive (doi:10.1021/je800732f).
